The text below walks through data of patent US11160887B2, “Compositions for use in diagnosing and treating melanoma, including metastatic melanoma and methods related to same” (UNM RAINFOREST INNOVATIONS, priority 2008, dated 2021).

Residues, ends and D or L forms follow the SMILES beside them.

Data set [1] is described as follows: Stability in mouse serum monitored by RP-HPLC. The format is in vitro ADME. The settings on record: 37° C., 24 h incubation. As for the experimental part: Complexation of the Peptide with ^111In: ^111In-DOTA-CycMSH and ^111In-DOTA-GlyGlu-CycMSH were prepared using a 0.5 M NH4OAc-buffered solution at pH 5.4. Briefly, 50 μl of ^111InCl3 (18.5-37.0 MBq in 0.05 M HCl), 10 μl of 1 mg/ml DOTA-CycMSH or DOTA-GlyGlu-CycMSH aqueous solution and 400 μl of 0.5 M NH4OAc (pH 5.4) were added into a reaction vial and incubated at 75° C. for 45 min. After the incubation, 20 μl of 0.5% EDTA aqueous solution was added into the reaction vial to scavenge potential unbound ^111In. The radiolabeled complexes were purified to single species by Waters RP-HPLC (Milford, Mass.) on a Grace Vadyc C-18 reverse phase analytical column (Deerfield, Ill.) using a 20-minute gradient of 16-26% acetonitrile in 20 mM HCl aqueous solution with a flowrate of 1 ml/min. Purified peptide samples were purged with N2 gas for 20 minutes to remove the acetonitrile. The pH of final solution was adjusted to 7.4 with 0.1 N NaOH and normal saline for animal studies. The stability of ^111In-DOTA-CycMSH and ^111In-DOTA-GlyGlu-CycMSH was determined by incubation in mouse serum at 37° C. according to the published procedure (20) for various time periods, and monitored for degradation by RP-HPLC.

Data set [2] can be described thus: Urinary metabolites by HPLC in B16/F1 melanoma-bearing C57 mice. The format is in vivo, mouse. The settings on record: urine, 2 h post-injection. As for the experimental part:
Urinary Metabolites of ^111In-DOTA-CycMSH and ^111In-DOTA-GlyGlu-CycMSH: One hundred microliter of HPLC purified ^111In-DOTA-CycMSH (0.74-1.11 MBq, 0.82-1.12 ng) or ^111In-DOTA-GlyGlu-CycMSH (0.74-1.11 MBq, 0.90-1.35 ng) was injected into each B16/F1 murine melanoma-bearing C57 mouse through the tail vein. At 2 h after dose administration, mice were sacrificed and the urine was collected. The radioactive metabolites in the urine were analyzed by injecting aliquots of urine into HPLC. A 20-minute gradient of 16-26% acetonitrile/20 mM HCl was used for the urine analysis.

The nature of data set [3]: Biodistribution in normal C57 mice. The class given is in vivo. To be noted: C57, mouse, lung, iv, 0.037 MBq, total radioactivity. As for the experimental part: Biodistribution Studies: All the animal studies were conducted in compliance with Institutional Animal Care and Use Committee approval. B16/F10 pulmonary metastatic melanoma model was established by injecting 0.2 million of cultured B16/F10 cells into each C57 mouse (Harlan, Indianapolis, Ind.) through the tail vein. The B16/F10 pulmonary metastatic melanoma-bearing C57 mice were used for biodistribution studies 16 days after the cell injection. The pharmacokinetics of ^111In-DOTA-GlyGlu-CycMSH was determined in B16/F10 pulmonary metastatic melanoma-bearing and normal C57 mice. HPLC-purified 0.037 MBq of ^111In-DOTA-GlyGlu-CycMSH was injected into each mouse through the tail vein. Groups of 5 mice were sacrificed at 2, 4 and 24 h post-injection, and tumors and organs of interest were harvested, weighed and counted. Blood values were taken as 6.5% of the whole-body weight. Statistical analysis was performed using the Student's t-test for unpaired data.

The test system of data set [4] is B16/F10 pulmonary melanoma metastases. The format is in vivo, mouse. To be noted: mouse, in vivo. On the procedure: Metastatic Melanoma Imaging: A pulmonary metastatic melanoma-bearing mouse was used for [^18F]FDG PET imaging 16 days after the cell injection and used for ^111In-DOTA-GlyGlu-CycMSH SPECT/CT imaging on next day (a time interval of 26 h) to compare the difference in detection efficiency between [^18F]FDG and ^111In-DOTA-GlyGlu-CycMSH. The mouse was injected with 35.15 MBq of commercial [^18F]FDG (Biotech, N. Mex.) via the tail vein. At 1 h post-injection, the mouse was anesthetized with 1.5% isoflurane and placed in the prone position near the center of the field of view of small animal PET (LabPET™) (Gamma Medica-Ideas, Sherbrooke, Quebec). A 30-min static scan was acquired, and the image was reconstructed by maximum likelihood estimation method (MLEM). The mouse was returned to the cage for recovery after the ^18F-FDG PET imaging study was completed. The same mouse was injected with 24.05 MBq of ^111In-DOTA-GlyGlu-CycMSH via the tail vein 24 h after the ^18F-FDG PET imaging study. The mouse was anesthetized with 1.5% isoflurane for small animal SPECT/CT (Nano-SPECT/CT®, Bioscan) imaging 2 h post-injection. The 6-min CT imaging was immediately followed by the focused SPECT imaging of lung. The SPECT scans of 24 projections were acquired and total acquisition time was 45 min. After the focused lung imaging, the mouse was sacrificed with CO2 inhalation for whole-body SPECT/CT imaging. The 9-min CT imaging was immediately followed by the SPECT imaging of whole-body. Reconstructed data from SPECT and CT were visualized and co-registered using InVivoScope (Bioscan, Washington D.C.). Necropsy analysis of the mouse was performed to confirm the pulmonary metastatic melanoma lesions after the SPECT/CT imaging studies were completed. To monitor the development of pulmonary melanoma metstases with ^111In-DOTA-GlyGlu-CycMSH, a pulmonary metastatic melanoma-bearing mouse was injected with 10.36 MBq of ^111In-DOTA-GlyGlu-CycMSH through the tail vein for small animal SPECT/CT imaging 20 days after the cell injection. […]

The tissue uptake is the share of the injected amount in each gram of the tissue. Turning to `CCCC[C@@H]1NC(=O)[C@@H](NC(=O)[C@H](CCC(=O)O)NC(=O)CNC(=O)CN2CCN(CC(=O)O)CCN(CC(=O)O)CCN(CC(=O)O)CC2)CCCCNC(=O)[C@H](CC(=O)O)NC(=O)[C@H](C(C)C)NC(=O)[C@@H]2CCCN2C(=O)[C@H](CCCNC(=N)N)NC(=O)CNC(=O)[C@H](Cc2c[nH]c3ccccc23)NC(=O)[C@H](CCCNC(=N)N)NC(=O)[C@@H](Cc2ccccc2)NC(=O)[C@H](Cc2c[nH]cn2)NC(=O)[C@H](CCC(=O)O)NC1=O` [^111In-DOTA-GlyGlu-CycMSH, metal not drawn] (HELM PEPTIDE1{[O=C(O)CN1CCN(CC(=O)O)CCN(CC(=O)[*:2])CCN(CC(=O)O)CC1].G.E.K.[Nle].E.H.[dF].R.W.G.R.P.V.D}$PEPTIDE1,PEPTIDE1,4:R3-15:R2$$$V2.0), in data set [1], the “stability in mouse serum” value is reported as “stable”. Besides, in data set [2], the “urinary metabolites by RP-HPLC” value is recorded as “transformed to two more polar metabolites”. Moreover, in data set [3] (2 h post-injection), the tissue uptake at 2 h was 0.08 ± 0.08 %ID/g. Also, the tissue uptake at 4 h in data set [3] (4 h post-injection) amounted to 0.05 ± 0.05 %ID/g. The tissue uptake at 24 h in data set [3] (24 h post-injection) was 0.03 ± 0.02 %ID/g. The “accumulation of activity in normal organs in whole-body image” value in data set [4] is recorded as “extremely low except for the kidneys”.
